In patent publication US5057513A, “Spiro-thiazepine derivatives useful as PAF antagonists” (Fujisawa Pharmaceutical Co., Ltd., priority 1989, dated 1991):
≈ marks a conversion by molar mass, not a printed value. Read-outs that look alike come from different tables or passages of the source. Each block holds one compound with its values, some of them ahead of it.

Legend:
[1] = test system: PAF-induced vascular permeability increase; assay: Inhibition of PAF-induced vascular permeability increase; type: in vivo, 6-week-old male ddY mice; conditions: Mus musculus, ip; mice; intraperitoneally, 5 minutes before Evan's blue; PAF 50 ng intradermally; read-out: ED50 (effective dose required to inhibit PAF-induced vascular permeability increase by 50%)
Method: PAF (50 ng) was injected intradermally to the depilated back of 6-week-old male ddY mice. Evan's blue (1 mg) was injected intravenously 5 minutes before the PAF injection, and the test compound was administered intraperitoneally 5 minutes before the Evan's blue injection. Thirty minutes later, the animals were killed and the area of dye leakage was measured.
The inhibition was expressed as ED50 value, i.e. effective dose (mg/kg) required to inhibit PAF-induced vascular permeability increase by 50%.

[2] = test system: platelet aggregation induced with PAF; assay: Test 1 (Inhibition of platelet aggregation); type: cell-based, male Japanese white rabbit; conditions: Oryctolagus cuniculus; rabbit platelet rich plasma; final concentration of PAF usually 32 nM; read-out: IC50 (concentration required to inhibit the platelet aggregation response by 50%)
Method: Blood was collected through the polyethylene catheter introduced into the carotid artery of male Japanese white rabbit (2.5 to 3 kg body weight). The blood was anticoagulated with 1 volume of 3.8% sodium citrate to 9 volume of blood. Platelet rich plasma (PRP) was prepared by centrifugation of the blood at 150 g for 10 minutes at room temperature. The PRP was diluted with platelet poor plasma obtained by further centrifugation of the blood at 1,000 g for 20 minutes. The platelet number was 5×10^5 cells/mm^3. Platelet aggregation induced with PAF [1-O-hexadecyl-2-O-acetyl-sn-glycero-3-phosphorylcholine] was measured by the nephelometric technique of Born and Cross [cf. Journal of Physiology 168, 178-188 (1963)] using HKK Hema tracer (trade name, made by Niko Bioscience Inc.).
Activity of inhibitor was expressed as IC50 value, i.e. concentration required to inhibit the platelet aggregation response by 50%. The final concentration of PAF was usually 32 nM.

[3] = test system: PAF-induced bronchoconstriction; assay: Effect of the test compound on PAF-induced bronchoconstriction in the guinea-pig; type: in vivo, Male Hartley guinea-pigs; conditions: Cavia porcellus, po, orally 30 minutes before PAF (0.64 μg/ml, 1 ml/kg), read-out: ED50 (effective dose of the test compound to inhibit the PAF-induced bronchoconstriction by 50%)
Method: Male Hartley guinea-pigs (400-500 g) were anesthetized with sodium pentobarbital (25 mg/kg, intraperitoneally). The right jugular vein was catheterized for injection of PAF (0.64 μg/ml, 1 ml/kg), and the animals were tracheotomized and ventilated with a respiratory pump (Harvard B-34, 5 ml/stroke, 60 strocks/minutes).
The test compound was administered orally 30 minutes before challenge with PAF.
(ED50 : effective dose of the test compound to inhibit the PAF-induced bronchoconstriction by 50%).

[4] = test system: endotoxin-induced disseminated intravascular coagulation (serum FDP); assay: Effect of the test compound on the endotoxin-induced disseminated intravascular coagulation; type: in vivo, male Wister rats; conditions: Rattus norvegicus, rats
Method: Conscious male Wister rats, 150-200 g body weight, 7 weeks old, were used in the experiment on endotoxin-induced disseminated intravascular coagulation (DIC). The animals were fasted before the experiment. A 10 mg/kg dose of endotoxin (E. coli) dissolved in saline was given as an injection via tail vein. Test compound was given orally 60 minutes before and 6 hours after endotoxin. The intravenous administration of the test compound into a tail vein was simultaneous with intravenous injection of endotoxin.
Arterial blood samples were taken 4 hours (Test compound; intravenously) and 24 hours (Test compound; orally) after endotoxin for measurements of serum FDP (fibrin degradation products), respectively. FDP was determined by the latex aggregation test.

PAF-induced lethality = assay: Effect of the test compound on the PAF-induced lethality in rats; type: in vivo, male Wistar rats; conditions: Rattus norvegicus, survival for 24 hours
Method: Conscious male Wistar rats, 150-200 g body weight, 7 weeks old, were used in the experiment on PAF-induced lethality. The animals were fasted before the experiment. Test compound was given orally 60 minutes before (or intravenously simultaneously with) intravenous PAF injection (10 μg/kg) into a tail vein. Survival of the animals was recorded for 24 hours after intravenous PAF injection.

Structure (SMILES): O=C1CC2(CCCCC2Cc2cccc(Cl)c2)S(=O)(=O)CCN1Cc1cccnc1 (stereo not shown) [1-(3-Chlorophenylmethyl)-10-(3-pyridylmethyl)-11-oxo-7-thia-10-azaspiro[5.6]dodecane 7,7-dioxide]
- ED50 [1]: 2.9 mg/kg

- IC50 [2]: 0.17 µg/mL (≈ 0.37 µM)
Structure (SMILES): CN(C)CCN1C(=O)CC2(CCCCC2Cc2ccccc2Cl)[S+]([O-])c2ccccc21 (stereo not shown) [2'-(2-Chlorophenylmethyl)-4,5-dihydro-4-oxo-5-{2-(N,N-dimethylamino)ethyl}spiro[1,5-benzothiazepine-2(3H), 1'-cyclohexane] 1-oxide]

Structure (SMILES): O=C1C[C@]2(CCCC[C@H]2Cc2ccccc2)S(=O)(=O)CCN1Cc1cccnc1 [(1S,6S)-1-Phenylmethyl-10-(3-pyridylmethyl)-11-oxo-7-thia-10-azaspiro[5.6]dodecane 7,7-dioxide]
- ED50 [3]: 3.7 mg/kg
- ED50 ([4]; intravenous, simultaneous with endotoxin 10 mg/kg, serum FDP at 4 hours, read-out: ED50 (mg/kg), endotoxin-induced DIC, intravenous): 2.4 mg/kg
- ED50 ([4]; oral, 60 minutes before and 6 hours after endotoxin 10 mg/kg, serum FDP at 24 hours, read-out: ED50 (mg/kg), endotoxin-induced DIC, oral): 6.8 mg/kg
- ED50 (PAF-induced lethality; intravenous, simultaneously with PAF 10 μg/kg i.v., read-out: ED50 (mg/kg), PAF-induced lethality, intravenous): 1 mg/kg
- ED50 (PAF-induced lethality; oral, 60 minutes before PAF 10 μg/kg i.v., read-out: ED50 (mg/kg), PAF-induced lethality, oral): 2 mg/kg
